Consider 10 compounds from US20210161837A1, “METHODS FOR TREATING CANCER WITH RORGAMMA INHIBITORS” (The Regents of the University of California, priority 2016, published 2021).

Assay [1] deals with prostate cancer C4-2B cells. As to the kind of experiment: Cell viability (Cell-Titer GLO), 4 days, prostate cancer cells. Format: cell-based, human. As to the method: The “No.” label for each compound corresponds to the “Structure No.” in Table 2 (e.g., “No. 36”=“Structure No. 36” in Table 2). Experiments were independently performed three times.
(§1) For cell viability, cells were seeded in 96-well plates at 1500-2500 cells per well (optimum density for growth, depending on the specific cell line) in a total volume of 100 μl media. Serially diluted compounds in 100 μl of media were added to the cells 12 hours later. After 4 days of incubation, Cell-Titer GLO reagents (Promega) were added and luminescence was measured on GLOMAX microplate luminometer (Promega), according to the manufacturer's instructions. All experimental points were set up as sextuplicate as biological replication and the entire experiments were repeated three times. The data are presented as percentage of viable cells with vehicle treated cells set as 100. The estimated in vitro IC50 values were calculated using GraphPad Prism 6 software.

In the next assay the test system is HCC70 cells. As to the kind of experiment: Cell viability (CellTiter-GLO), 4 days, TNBC cells. In kind it is cell-based, human. As for the experimental part: (§2) The “No.” label for each compound corresponds to the “Structure No.” in Table 2 (e.g., “No. 36”=“Structure No. 36” in Table 2). The cell viability curves were measured by CellTiter-GLO.
as §1, with “growth)” for “growth, depending on the specific cell line)”

For another assay, the system named is MDA-MB468 cells. Kind of assay: Cell viability (CellTiter-GLO), 4 days, TNBC cells. In kind it is cell-based, human. As to the method:
as §2
as §1, with “growth)” for “growth, depending on the specific cell line)”
On the technique in general: In ATP-based viability assays light output follows the ATP content of the culture.

Assay [2] concerns gastric cancer KATO III cells. As to the kind of experiment: Cell viability (Cell-Titer GLO), 4 days, gastric cancer cells. Format: cell-based, human. As to the method: Experiments were independently performed three times.
as §1, with “100.” for “100. The estimated in vitro IC50 values were calculated using GraphPad Prism 6 software.”

For assay [3], the system named is SUM159 orthotopic xenograft tumors. As to the kind of experiment: TNBC SUM159 orthotopic xenograft tumor growth in SCID mice. In kind it is in vivo, mouse. As to conditions: 5 mg/kg, i.p., 5 times per week, 45 days. As for the experimental part: Orthotopic xenograft tumor models and chemical compound treatments: Four-week-old female SCID C.B17 mice (for TNBC SUM159 cell lines) were purchased from Harlan Inc. For establishing tumors, 2×10^6 cells were suspended in total of 100 μL PBS/Matrigel (1:1) and implanted orthotopically into the 4th inguinal mammary fat pads at both sides. Animal group size of six or more was estimated to have a high statistical power, based on power calculation (www.biomath.info/pgwer/) and 20 previous studies involving the same xenograft models. When the tumor volume was approximately 50 mm^3, the mice were randomized and then treated intraperitoneally (i.p.) with 100 μl of vehicle or RORγ inhibitors F18/No. 37, 5 mg/kg; GSK805, 5 mg/kg; GNE3500, 5 mg/kg. (in a formulation of 15% Cremophor EL, Calbiochem, 82.5% PBS, and 2.5% DMSO) for five times per week. Tumor growth was monitored by calipers with volume calculated using the equation: π/6 (length×width^2). Mouse body weight during the course of the study was also monitored. At the end of the studies, mice were killed and tumors were dissected and weighed.

The test system of another assay is MCF-7-TamR. As to the kind of experiment: Growth and survival of tamoxifen-resistant breast cancer cells. Conditions: MCF-7-TamR, 1 μM of 4(OH)-tamoxifen alone. In kind it is cell-based, human.

For the compound `O=C(Cc1ccc([N+](=O)[O-])cc1)Nc1ccc(-c2ccc(C(O)(C(F)(F)F)C(F)(F)F)cc2F)cc1` [F17, N-(2′-fluoro-4′-(1,1,1,3,3,3-hexafluoro-2-hydroxypropan-2-yl)-[1,1′-biphenyl]-4-yl)-2-(4-nitrophenyl)acetamide], the “inhibition of growth and survival” value was “strongly inhibited the growth and survival” in assay [1]; “strongly inhibited the growth and survival” in the assay with HCC70 cells; “strongly inhibited the growth and survival” in the assay on MDA-MB468 cells.
For the compound `O=C(CCc1ccccc1)Nc1ccc(-c2ccc(C(O)(C(F)(F)F)C(F)(F)F)cc2F)cc1` [F62, N-(2′-fluoro-4′-(1,1,1,3,3,3-hexafluoro-2-hydroxypropan-2-yl)-[1,1′-biphenyl]-4-yl)-3-phenylpropanamide], the “inhibition of growth and survival” value in assay [1] was “strongly inhibited the growth and survival”; in the assay with HCC70 cells, “strongly inhibited the growth and survival”; with MDA-MB468 cells, “strongly inhibited the growth and survival”.
For `O=C(CCC(F)(F)F)Nc1ccc(-c2ccc(C(O)(C(F)(F)F)C(F)(F)F)cc2F)cc1` [F63, 4,4,4-trifluoro-N-(2′-fluoro-4′-(1,1,1,3,3,3-hexafluoro-2-hydroxypropan-2-yl)-[1,1′-biphenyl]-4-yl)butanamide], the “inhibition of growth and survival” value in assay [1] is “strongly inhibited the growth and survival”; in the assay with HCC70 cells, “strongly inhibited the growth and survival”; in the assay on MDA-MB468 cells it was “strongly inhibited the growth and survival”.
Consider `CCCCCCC(=O)Nc1ccc(-c2ccc(C(O)(C(F)(F)F)C(F)(F)F)cc2F)cc1` [F64, N-(2′-fluoro-4′-(1,1,1,3,3,3-hexafluoro-2-hydroxypropan-2-yl)-[1,1′-biphenyl]-4-yl)heptanamide], for which the “inhibition of growth and survival” value is “strongly inhibited the growth and survival” in assay [1]; “strongly inhibited the growth and survival” in the assay with HCC70 cells; “strongly inhibited the growth and survival” with MDA-MB468 cells.
In the case of `O=C(CCCC1CCCCC1)Nc1ccc(-c2ccc(C(O)(C(F)(F)F)C(F)(F)F)cc2F)cc1` [F65, 4-cyclohexyl-N-(2′-fluoro-4′-(1,1,1,3,3,3-hexafluoro-2-hydroxypropan-2-yl)-[1,1′-biphenyl]-4-yl)butanamide], the “inhibition of growth and survival” value in assay [1] was “strongly inhibited the growth and survival”; in the assay on HCC70 cells, “strongly inhibited the growth and survival”; with MDA-MB468 cells, “strongly inhibited the growth and survival”.
As for `COC(=O)CCCC(=O)Nc1ccc(-c2ccc(C(O)(C(F)(F)F)C(F)(F)F)cc2F)cc1` [F68, Methyl-5-((2′-fluoro-4′-(1,1,1,3,3,3-hexafluoro-2-hydroxypropan-2-yl)-[1,1′-biphenyl]-4-yl)amino)-5-oxopentanoate], the “inhibition of growth and survival” value is “strongly inhibited the growth and survival” in assay [1]; “strongly inhibited the growth and survival” in the assay with HCC70 cells; “strongly inhibited the growth and survival” in the assay on MDA-MB468 cells.
As for `CC(=O)N1CCN(c2ccc(CN3[C@@H](C)CC[C@H](c4ccccc4)S3(=O)=O)c(F)c2)CC1` [GNE3500], the “inhibition of growth and survival” value in assay [2] was “strongly inhibited the growth and survival”.
For `CCS(=O)(=O)c1ccc(CC(=O)Nc2cc(Cl)c(-c3ccccc3OC(F)(F)F)c(Cl)c2)cc1` [GSK805, reference compound], the “inhibition of growth and survival” value in assay [2] was “strongly inhibited the growth and survival”. Further, the “orthotopic tumor growth inhibition” value in assay [3] is “Strong tumor growth inhibition”.
With `OC(c1ccc(-c2ccc(CN3CCN(Cc4ccncc4)CC3)cc2)c(F)c1)(C(F)(F)F)C(F)(F)F` [SR2211], the “inhibition of growth and survival” value in assay [2] was “strongly inhibited the growth and survival”.
In the case of `CC/C(=C(\c1ccccc1)c1ccc(OCCN(C)C)cc1)c1ccccc1` [tamoxifen, reference compound], the “growth inhibitory effect, tamoxifen alone” value with MCF-7-TamR was “did not show any inhibitory effect”.
